Reference: patent publication US6900019B1, “In-situ cell extraction and assay method” (Amersham Biosciences UK Limited, priority 1997, dated 2005)
Where “and” joins values, the source holds several entries; their conditions need not be identical. Identical values can stand only once.

Tests used:
[1] = tested on: rabbit anti-cAMP sera (antigen:antibody binding); assay: Scintillation proximity radioimmunoassay for cAMP: standard curves with lysis reagents and sequestrants; details: for [125I]cAMP bound to SPA beads, counts per minute: no sequestrant; for restoration of antigen:antibody binding by different sequestrants: 2.5% (w/v) sequestrant, standards in 1% DTAB
Description: All assays were carried out in microtitre plates compatible with a microtitre plate beta scintillation counter. Standards (50 μl; 0.2-12.8 pmol/well), antisera (50 μl; at 1:11000 dilution), tracer (50 ul; 10000-20000 cpm) are added to anti-rabbit coated SPA beads (50 μl; 20 mg/ml). Non-specific binding was determined in the absence of specific rabbit antisera. SPA anti-rabbit reagent is placed onto a magnetic stirrer to ensure a homogeneous suspension before pipetting. All wells contained a total volume of 200 μl. The plates were sealed and incubated at room temperature (15-30° C.) for 15-20 hours. The amount of [^125I]cAMP bound to the SPA fluomicrospheres was determined by counting in a microtitre plate beta scintillation counter for 2 minutes.
Experiments were set up with:— • a) Working standards (4-256 pmol/ml; 0.2-12.8 pmol/well) were prepared in assay buffer (0.05M sodium acetate buffer containing 0.01% sodium azide) only (control) or assay buffer containing lysis reagent (e.g. DTAB, CPC or SDS; see experiment 1) at various concentrations. • b) Rabbit anti-cAMP sera prepared in assay buffer only (control) or assay buffer containing sequestrating agent at various concentrations depending on the experiment. • c) Radioactive tracer: adenosine 3′ 5′-cyclic phosphoric acid 2′-O-succinyl-3-[^125I] iodotyrosine methyl ester prepared in assay buffer only (control) or assay buffer containing sequestrating agent at various concentrations depending on the experiment. • d) Donkey anti-rabbit IgG coupled to scintillation proximity fluomicrospheres prepared in assay buffer only (control) or assay buffer containing sequestrating agent at various concentrations depending on the experiment. Experiment 1: Inhibition of Antigen and Antibody Binding by Several Lysis Reagents Method
In these experiments, standard curves were prepared for cAMP using the SPA immunoassay technique, described above, where working standards of cAMP were prepared in several lysis reagents at 1% (w/v) or 2% (w/v) final concentration. The detergents investigated included dodecyl trimethyl ammonium bromide (DTAB; Sigma Chemical Co. D8638), benzethonium chloride (BZC; Aldrich; B470-8), cetyl pyridinium chloride (CPC; Sigma Chemical Co; C9002), sodium dodecyl sulphate (SDS, Sigma chemical Co; L4509) and N-dodecyl-N,N-dimethyl-3-ammonio-1-propanesulphonate (DDAPS; Sigma Chemical Co.; D4516).
In these experiments, standard curves for cAMP were prepared using the SPA immunoassay technique described above, where working standards of cAMP were prepared in 1% (w/v), 1.5% (w/v) or 2% (w/v) lysis reagents (DTAB, SDS or CPC). The control consisted of no lysis reagent or cyclodextrin added. The effect including 2.5% (w/v) alpha-cyclodextrin (alpha-CD) (Sigma Chemical Co.; C4642) on antigen:antibody binding was investigated. Here, tracer, antisera and SPA beads were prepared in assay buffer containing 2.5% (w/v) alpha-CD. A second control tested the effect of 2.5% (w/v) alpha-CD on the standard curve without addition of lysis reagent.
In this experiment, standard curves for cAMP were prepared using the SPA radioimmunoassay where working standards of cAMP were prepared in 1% (w/v) DTAB. The effect of including 1% (w/v), 2% (w/v), 2.5% (w/v) and 5% (w/v) alpha-cyclodextrin on antigen:antibody binding was investigated. Here, tracer, antisera and SPA beads were prepared in assay buffer containing alpha-CD at the above concentrations. The control consisted of no lysis or cyclodextrin added to the assay.
In this experiment, standard curves for cAMP were prepared using the SPA immunoassay technique where working standards were prepared 1% (wt) lysis reagent (DTAB). The effect of including 2.5% (w/v) alpha-cyclodextrin (CD) 2.5% (w/v) beta-cyclodextrin (beta-CD) (Sigma is Chemical Co.; C4767) and 2.5% (w/v) gamma-cyclodextrin (gamma-CD) (Sigma Chemical Co.; 4892) on antigen:antibody binding was investigated. […]

[2] = tested on: Chinese hamster ovary (CHO) cells; assay: "Total" cellular cAMP from forskolin-stimulated CHO cells; assay type: cell-based; details: 100 μM forskolin, 20 minutes
Description: Chinese hamster ovary (CHO) cells were cultured in HAM's media containing 10% (v/v) foetal calf serum (FCS). For cAMP assays, cells were seeded into clear-bottomed 96-well tissue-culture plates with opaque walls (tissue-culture grade; see materials) in HAM's media, (see experiment 5) at 40 μl/well (between 10^4 and 10^6 cells/well). Cells were cultured overnight at 37° C. in a 95% air/5% CO2 atmosphere. The next day, sequestration and lysis buffers (2.5% alpha-cyclodextrin, 1% and 10% DTAB in assay buffer) were prepared. Antisera (at 1/11000 dilution), tracer (10000-20000 cpm) and SPA beads (20 mg/ml) were reconstituted with assay buffer containing 2.5% (w/v) alpha-cyclodextrin. […]
DTAB (100 μl, 1% w/v in assay buffer) was added to the non-specific binding wells. […] Following incubation, the plate was transferred directly to a TopCount™ scintillation counter and radioactivity detected. Non-specific binding was determined in the absence of specific rabbit antisera. Cyclic AMP levels were determined using log/linear analysis with reference to the standard curve. […]
Chinese hamster ovary cells were seeded at a density of 100,000 cells per well and cultured overnight to confluence in Viewplates as described under the methods section. […] The cell culture supernatant was not removed before the cell lysis step. cAMP levels were measured with the SPA radioimmunoassay procedure.

[3] = 1% lysis reagent, 0.2 pmol cAMP/well
[4] = 1% lysis reagent, 0.4 pmol cAMP/well
[5] = 1% lysis reagent, 0.8 pmol cAMP/well
[6] = 1% lysis reagent, 1.6 pmol cAMP/well
[7] = 1% lysis reagent, 3.2 pmol cAMP/well
[8] = 1% lysis reagent, 6.4 pmol cAMP/well
[9] = 1% lysis reagent, 12.8 pmol cAMP/well
[10] = 1% lysis reagent, NSB (no specific antisera)
[11] = 1% lysis reagent, Zero standard
[12] = 2% lysis reagent, 0.2 pmol cAMP/well
[13] = 2% lysis reagent, 0.4 pmol cAMP/well
[14] = 2% lysis reagent, 0.8 pmol cAMP/well
[15] = 2% lysis reagent, 1.6 pmol cAMP/well
[16] = 2% lysis reagent, 3.2 pmol cAMP/well
[17] = 2% lysis reagent, 6.4 pmol cAMP/well
[18] = 2% lysis reagent, 12.8 pmol cAMP/well
[19] = 2% lysis reagent, NSB (no specific antisera)
[20] = 2% lysis reagent, Zero standard

Compound	[125I]cAMP bound to SPA beads, counts per minute [1, 3]	[125I]cAMP bound to SPA beads, counts per minute [1, 4]	[125I]cAMP bound to SPA beads, counts per minute [1, 5]	[125I]cAMP bound to SPA beads, counts per minute [1, 6]	[125I]cAMP bound to SPA beads, counts per minute [1, 7]	[125I]cAMP bound to SPA beads, counts per minute [1, 8]	[125I]cAMP bound to SPA beads, counts per minute [1, 9]	[125I]cAMP bound to SPA beads, counts per minute [1, 10]	[125I]cAMP bound to SPA beads, counts per minute [1, 11]	[125I]cAMP bound to SPA beads, counts per minute [1, 12]	[125I]cAMP bound to SPA beads, counts per minute [1, 13]	[125I]cAMP bound to SPA beads, counts per minute [1, 14]	[125I]cAMP bound to SPA beads, counts per minute [1, 15]	[125I]cAMP bound to SPA beads, counts per minute [1, 16]	[125I]cAMP bound to SPA beads, counts per minute [1, 17]	[125I]cAMP bound to SPA beads, counts per minute [1, 18]	[125I]cAMP bound to SPA beads, counts per minute [1, 19]	[125I]cAMP bound to SPA beads, counts per minute [1, 20]	restoration of antigen:antibody binding by different sequestrants [1]	also measured
CC(C)(C)CC(C)(C)c1ccc(OCCOCC[N+](C)(C)Cc2ccccc2)cc1 [BZC, benzethonium chloride]	644 cpm	501 cpm	473 cpm	426 cpm	261 cpm	16 cpm	6 cpm	111 cpm	951 cpm	308 cpm	338 cpm	222 cpm	156 cpm	143 cpm	96 cpm	70 cpm	117 cpm	486 cpm	–	–
CCCCCCCCCCCC[N+](C)(C)CCCS(=O)(=O)[O-] [DDAPS, N-dodecyl-N,N-dimethyl-3-ammonio-1-propanesulphonate]	969 cpm and 762 cpm	849 cpm and 719 cpm	725 cpm and 689 cpm	610 cpm and 559 cpm	425 cpm and 446 cpm	311 cpm and 326 cpm	204 cpm and 173 cpm	181 cpm and 137 cpm	1109 cpm and 906 cpm	416 cpm and 423 cpm	426 cpm and 370 cpm	429 cpm and 350 cpm	339 cpm and 290 cpm	303 cpm and 252 cpm	215 cpm and 194 cpm	109 cpm and 115 cpm	129 cpm and 130 cpm	579 cpm and 510 cpm	–	–
CCCCCCCCCCCCOS(=O)(=O)[O-].[Na+] [SDS, sodium dodecyl sulphate]	–	–	–	–	–	640 cpm	394 cpm	118 cpm	1149 cpm	–	–	–	–	–	–	–	–	–	–	[125I]cAMP bound to SPA beads, counts per minute ([1]; 1% lysis reagent, 0.2 pmol cAMP/well, sulphate): 1052 cpm and 1128 cpm; [125I]cAMP bound to SPA beads, counts per minute ([1]; 1% lysis reagent, 0.4 pmol cAMP/well, sulphate): 973 cpm and 1052 cpm; [125I]cAMP bound to SPA beads, counts per minute ([1]; 1% lysis reagent, 0.8 pmol cAMP/well, sulphate): 913 cpm and 973 cpm; [125I]cAMP bound to SPA beads, counts per minute ([1]; 1% lysis reagent, 1.6 pmol cAMP/well, sulphate): 859 cpm and 913 cpm; [125I]cAMP bound to SPA beads, counts per minute ([1]; 1% lysis reagent, 3.2 pmol cAMP/well, sulphate): 837 cpm and 859 cpm
OC[C@H]1O[C@@H]2O[C@H]3[C@H](O)[C@@H](O)[C@@H](O[C@H]4[C@H](O)[C@@H](O)[C@@H](O[C@H]5[C@H](O)[C@@H](O)[C@@H](O[C@H]6[C@H](O)[C@@H](O)[C@@H](O[C@H]7[C@H](O)[C@@H](O)[C@@H](O[C@H]8[C@H](O)[C@@H](O)[C@@H](O[C@H]1[C@H](O)[C@H]2O)O[C@@H]8CO)O[C@@H]7CO)O[C@@H]6CO)O[C@@H]5CO)O[C@@H]4CO)O[C@@H]3CO [beta-cyclodextrin]	–	–	–	–	–	–	–	–	–	–	–	–	–	–	–	–	–	–	less effective	–
C=C[C@@]1(C)CC(=O)[C@]2(O)[C@@]3(C)[C@@H](O)CCC(C)(C)[C@@H]3[C@H](O)[C@H](OC(C)=O)[C@@]2(C)O1 [forskolin, Forskolin]	–	–	–	–	–	–	–	–	–	–	–	–	–	–	–	–	–	–	–	Total cellular cAMP levels [2]: over 170 pmol/10^6 cells
OC[C@H]1O[C@@H]2O[C@H]3[C@H](O)[C@@H](O)[C@@H](O[C@H]4[C@H](O)[C@@H](O)[C@@H](O[C@H]5[C@H](O)[C@@H](O)[C@@H](O[C@H]6[C@H](O)[C@@H](O)[C@@H](O[C@H]7[C@H](O)[C@@H](O)[C@@H](O[C@H]8[C@H](O)[C@@H](O)[C@@H](O[C@H]9[C@H](O)[C@@H](O)[C@@H](O[C@H]1[C@H](O)[C@H]2O)O[C@@H]9CO)O[C@@H]8CO)O[C@@H]7CO)O[C@@H]6CO)O[C@@H]5CO)O[C@@H]4CO)O[C@@H]3CO [gamma cyclodextrin, gamma-cyclodextrin]	–	–	–	–	–	–	–	–	–	–	–	–	–	–	–	–	–	–	restored binding to an optimal degree	–
